Experiments:
mutant NPC1 mice = conditions: cited from earlier work
[1] = test system: Hsp70 (HspA1A and HspA1B) in PBMC; assay: Hsp70 level in PBMC samples of NPC patients treated with arimoclomol (ELISA); format: in vivo, human
Protocol: Whole blood samples were collected in 6 mL EDTA tubes at the clinical study sites and shipped ambient to a central laboratory for sample preparation.
Clinical study samples (n=26) were obtained from individuals with Niemann Pick disease Type C (NPC patients), who were 2 to 18 years of age, diagnosed with NPC, had at least one neurological symptom and had preserved ability to walk with assistance. Patients were maintained on standard therapy during the study. Samples were collected at a first clinical study visit (inclusion) and at a second clinical study visit 6 to 14 months following the first visit.
Plasma was separated from whole blood by centrifugation at room temperature. Blood volume was restored in PBS and PBMCs were isolated by density gradient centrifugation using Histopaque™. Viable PBMC cell count was determined by flow cytometry. Aliquots of 1 mio. PBMC were generated and stored frozen at −70° C.
Hsp70 was quantified using the Human/Mouse/Rat total HSP70 DuoSet® IC ELISA kit (R&D Systems). Prior to analysis of the clinical study samples, the analytical method had been qualified for determination of Hsp70 in human PBMC samples. The Human/Mouse/Rat total HSP70 DuoSet® IC ELISA kit detects the levels of HspA1A and HspA1B with no cross-reactivity of HspA5 and HspA8.
The materials and methods were performed as described in Example 1.
The Hsp70 concentration was measured in homogenates of Peripheral Blood Mononuclear Cells (PBMC). Hsp70 was determined in an observational study (FIGS. 4 and 5), at screening (pretreatment) and then again after 6-14 months (baseline). Patients were treated for 12 months with arimoclomol (Clinicaltrials.gov identifier NCT02612129). Hsp70 levels were analyzed by the Wilcoxon signed rank test for the 12 patients on arimoclomol with baseline and 12 months data point comparing the Hsp70 levels before and after 12 months of treatment.

[2] = PBMC homogenates, 12 months of treatment vs baseline, n=12

[O-][n+]1cccc(/C(Cl)=N/OC[C@H](O)CN2CCCCC2)c1 [arimoclomol, N-[2-hydroxy-3-(1-piperidinyl)-propoxy]-pyridine-1-oxide-3-carboximidoyl chloride]
neuronal as well as visceral pathology (mutant NPC1 mice): reversed
size of the lysosomal compartment (mutant NPC1 mice): reduced
Hsp70 change from baseline, Median [1, 2]: 1175.5 pg/mL
Hsp70 change from baseline, Min-max [1, 2]: 234.7 to 6509.0 pg/mL
Hsp70 change from baseline, mean (SD) [1, 2]: 1815.0 (1754.6) pg/mL
PBMC-level of Hsp70 compared to baseline ([1]; treatment for 12 months): significantly increased

From patent US20210164997A1, “HSP70 PROTEIN LEVELS IN PBMC SAMPLES AS BIOMARKER FOR DISEASE” (Orphazyme A/S, priority 2018, published 2021)
